Experiments:
[1] = Pharmacokinetic study in rats after single oral administration of POH and TMZ (plasma, UPLC-MS/MS); assay type: in vivo, Male Wistar rats; settings: rat plasma, single oral dose POH 47 mg/kg and TMZ 2 mg/kg, n = 6
Procedure: Approximately 200 μL of whole blood was collected from the tail vein of each rat. Samples were centrifuged at 3500 rpm for 10 min at 20°C to separate the plasma. Plasma samples were then subjected to liquid–liquid extraction with ACN. The mixture was centrifuged again at 3500 rpm for 10 min at 4°C. The resulting supernatant was filtered through hydrophobic 0.22 μm membranes and transferred to autosampler vials. A 2 μL aliquot of each sample was injected into the UPLC‐MS/MS system for analysis.
Thawed plasma samples (50 μL) were also prepared by protein precipitation. Each sample was mixed with 50 μL of IS solution and 900 μL of ACN, followed by centrifugation at 3500 rpm for 10 min at 20°C. The supernatants were filtered and analyzed as described. All dilutions were performed based on analyte concentration to ensure compliance with the method's validated dynamic range.
The pharmacokinetic and biodistribution study was conducted in accordance with ethical guidelines and approved by the Animal Ethics Committee of the Universidade Estadual do Centro‐Oeste, Brazil (Protocol No. 026/2023). Male Wistar rats (n = 6 for pharmacokinetics; n = 4 for biodistribution), weighing approximately 200 g, were housed under controlled environmental conditions (12 h light/dark cycle, 35% relative humidity, and temperature of 23°C ± 2°C). Animals had free access to food and water, which were withheld 10 h prior to drug administration and resumed 2 h afterward.
Each animal received a single oral dose of POH (47 mg/kg) and TMZ (2 mg/kg). For pharmacokinetic profiling, blood samples were collected via the tail vein into heparinized tubes at predefined time points: 0.5, 1, 2, 4, 8, 12, and 24 h post‐administration. For biodistribution analysis, a separate cohort of rats (n = 4) was sacrificed 4 h after dosing. Organs, including the brain, liver, lungs, kidneys, and spleen, were collected, homogenized, and stored at −20°C for subsequent quantification, as detailed in Section 3.2.
Pharmacokinetic parameters were calculated using non‐compartmental analysis with the PKSolver plugin for Microsoft Excel. The following parameters were determined: area under the plasma concentration–time curve from 0 to 24 h (AUC0–24h), maximum plasma concentration (Cmax), time to reach Cmax (tmax), elimination half‐life (t1/2), volume of distribution (VD), and total clearance (CL).

[2] = Stability of analytes in rat plasma and tissue matrices (freeze-thaw, bench-top, autosampler); assay type: physicochemical; settings: for Stability (ER %) Autosampler: 10°C for 24 h; for Stability (ER %) Bench-top: room temperature for 6 h; for Stability (ER %) Freeze/thaw: three freeze–thaw cycles over 24-h intervals
Procedure: QC samples were prepared by spiking blank rat plasma with PA, AIC, and TMZ at three concentration levels: 30, 80, and 200 ng/mL. Internal standards (IS1 and IS2) were added to each sample at a final concentration of 100 ng/mL. Whole blood was obtained from untreated anesthetized rats that were euthanized as part of the study protocol. Blood samples were collected into heparinized tubes and centrifuged at 3500 rpm for 10 min at 20°C to separate plasma. Organs including the brain, lungs, kidneys, spleen, and liver were promptly excised and homogenized using a Marconi mechanical tissue homogenizer (5 mm probe) in phosphate‐buffered saline (PBS, pH 7.4) at a 1:5 (w/v) tissue‐to‐buffer ratio.
For each matrix sample, 50 μL of homogenate or plasma was mixed with 50 μL of internal standard (IS) solution (100 ng/mL), followed by the addition of the respective working solution to reach the target analyte concentration. The volume was adjusted to 1 mL using an appropriate solvent mixture. Samples were centrifuged again at 3500 rpm for 10 min at 4°C. The resulting supernatants were filtered through 0.22 μm membrane filters prior to chromatographic analysis. All calibration standards and QC samples were prepared freshly on the day of analysis to minimize analyte degradation.
The stability of PA, AIC, and TMZ in rat plasma was assessed under the following conditions using low, medium, and high QC levels: (1) Freeze–thaw stability: Three freeze–thaw cycles over 24‐h intervals; (2) Bench‐top stability: Storage at room temperature for 6 h; (3) Autosampler stability: Storage at 10°C for 24 h. Analytes were considered stable if the relative error (RE%) remained within ±15% (Tiwari and Tiwari [2010]).

[3] = rat brain homogenate, 200 ng/mL
[4] = rat kidney homogenate, 30 ng/mL
[5] = rat kidney homogenate, 80 ng/mL
[6] = rat kidney homogenate, 200 ng/mL
[7] = rat liver homogenate, 200 ng/mL
[8] = rat spleen homogenate, 30 ng/mL
[9] = rat spleen homogenate, 80 ng/mL
[10] = rat spleen homogenate, 200 ng/mL

- Tmax ([1]; male, Wistar): 1 h
- half-life ([1]; male, Wistar): 18.5 h
- k el ([1]; male, Wistar): 1.03e-05 s⁻¹
- AUC(0-t) ([1]; male, Wistar, read-out: AUC0–24h): 2190 ng·h/mL
- CL [1]: 3.83 mL/min/kg
- Vd [1]: 6.09 L/kg
- Stability (ER %) Autosampler ([2]; rat brain homogenate, 30 ng/mL): 2.04%
- Stability (ER %) Bench-top ([2]; rat brain homogenate, 30 ng/mL): 7.13%
- Stability (ER %) Freeze/thaw ([2]; rat brain homogenate, 30 ng/mL): 8.55%
- Stability (ER %) Autosampler ([2]; rat brain homogenate, 80 ng/mL): 4.29%
- Stability (ER %) Bench-top ([2]; rat brain homogenate, 80 ng/mL): 8.22%
- Stability (ER %) Freeze/thaw ([2]; rat brain homogenate, 80 ng/mL): 1.79%
- Stability (ER %) Autosampler [2, 3]: 4.57%
- Stability (ER %) Bench-top [2, 3]: 9.26%
- Stability (ER %) Freeze/thaw [2, 3]: 6.76%
- Stability (ER %) Autosampler [2, 4]: 4.28%
- Stability (ER %) Bench-top [2, 4]: 2.11%
- Stability (ER %) Freeze/thaw [2, 4]: 1.29%
- Stability (ER %) Autosampler [2, 5]: 5.42%
- Stability (ER %) Bench-top [2, 5]: 8.94%
- Stability (ER %) Freeze/thaw [2, 5]: 8.45%
- Stability (ER %) Autosampler [2, 6]: 5.94%
- Stability (ER %) Bench-top [2, 6]: 8.76%
- Stability (ER %) Freeze/thaw [2, 6]: 6.46%
- Stability (ER %) Autosampler ([2]; rat liver homogenate, 30 ng/mL): 4.35%
- Stability (ER %) Bench-top ([2]; rat liver homogenate, 30 ng/mL): 9.13%
- Stability (ER %) Freeze/thaw ([2]; rat liver homogenate, 30 ng/mL): 1.67%
- Stability (ER %) Autosampler ([2]; rat liver homogenate, 80 ng/mL): 1.74%
- Stability (ER %) Bench-top ([2]; rat liver homogenate, 80 ng/mL): 3.28%
- Stability (ER %) Freeze/thaw ([2]; rat liver homogenate, 80 ng/mL): 9.53%
- Stability (ER %) Autosampler [2, 7]: 2.34%
- Stability (ER %) Bench-top [2, 7]: 8.71%
- Stability (ER %) Freeze/thaw [2, 7]: 7.67%
- Stability (ER %) Autosampler ([2]; rat lung homogenate, 30 ng/mL): 2.22%
- Stability (ER %) Bench-top ([2]; rat lung homogenate, 30 ng/mL): 7.93%
- Stability (ER %) Freeze/thaw ([2]; rat lung homogenate, 30 ng/mL): 5.74%
- Stability (ER %) Autosampler ([2]; rat lung homogenate, 80 ng/mL): 2.84%
- Stability (ER %) Bench-top ([2]; rat lung homogenate, 80 ng/mL): 8.37%
- Stability (ER %) Freeze/thaw ([2]; rat lung homogenate, 80 ng/mL): 1.04%
- Stability (ER %) Autosampler ([2]; rat lung homogenate, 200 ng/mL): 3.33%
- Stability (ER %) Bench-top ([2]; rat lung homogenate, 200 ng/mL): 8.49%
- Stability (ER %) Freeze/thaw ([2]; rat lung homogenate, 200 ng/mL): 6.67%
- Stability (ER %) Autosampler ([2]; rat plasma, 30 ng/mL): 12.36%
- Stability (ER %) Bench-top ([2]; rat plasma, 30 ng/mL): 6.77%
- Stability (ER %) Freeze/thaw ([2]; rat plasma, 30 ng/mL): 10.24%
- Stability (ER %) Autosampler ([2]; rat plasma, 80 ng/mL): 13.46%
- Stability (ER %) Bench-top ([2]; rat plasma, 80 ng/mL): 10.93%
- Stability (ER %) Freeze/thaw ([2]; rat plasma, 80 ng/mL): 5.34%
- Stability (ER %) Autosampler ([2]; rat plasma, 200 ng/mL): 3.48%
- Stability (ER %) Bench-top ([2]; rat plasma, 200 ng/mL): 9.03%
- Stability (ER %) Freeze/thaw ([2]; rat plasma, 200 ng/mL): 1.04%
- Stability (ER %) Autosampler [2, 8]: 4.01%
- Stability (ER %) Bench-top [2, 8]: 1.42%
- Stability (ER %) Freeze/thaw [2, 8]: 8.36%
- Stability (ER %) Autosampler [2, 9]: 4.98%
- Stability (ER %) Bench-top [2, 9]: 3.74%
- Stability (ER %) Freeze/thaw [2, 9]: 4.43%
- Stability (ER %) Autosampler [2, 10]: 3.13%
- Stability (ER %) Bench-top [2, 10]: 1.52%
- Stability (ER %) Freeze/thaw [2, 10]: 1.32%
SMILES: NC(=O)c1[nH]cnc1N [AIC, 5‐aminoimidazole‐4‐carboxamide]
